ChEMBL document CHEMBL1130929, “Conformationally restricted analogues of nicotine and anabasine” (Bioorg Med Chem Lett, 1998)

Key:
[1] = In vitro ability to displace tritiated nicotine from rat brain binding sites, and calcium flux (c.f)
[2] = target: T1, Neuronal acetylcholine receptor; alpha2/beta4 (Homo sapiens, UniProt P30926+Q15822); experiment: (§1) Compound was evaluated for agonist activity against activated human recombinant Nicotinic acetylcholine receptor alpha2-beta4 in Xenopus Oocytes; type: functional, cell-based
T1 sequence (P30926 whole entry): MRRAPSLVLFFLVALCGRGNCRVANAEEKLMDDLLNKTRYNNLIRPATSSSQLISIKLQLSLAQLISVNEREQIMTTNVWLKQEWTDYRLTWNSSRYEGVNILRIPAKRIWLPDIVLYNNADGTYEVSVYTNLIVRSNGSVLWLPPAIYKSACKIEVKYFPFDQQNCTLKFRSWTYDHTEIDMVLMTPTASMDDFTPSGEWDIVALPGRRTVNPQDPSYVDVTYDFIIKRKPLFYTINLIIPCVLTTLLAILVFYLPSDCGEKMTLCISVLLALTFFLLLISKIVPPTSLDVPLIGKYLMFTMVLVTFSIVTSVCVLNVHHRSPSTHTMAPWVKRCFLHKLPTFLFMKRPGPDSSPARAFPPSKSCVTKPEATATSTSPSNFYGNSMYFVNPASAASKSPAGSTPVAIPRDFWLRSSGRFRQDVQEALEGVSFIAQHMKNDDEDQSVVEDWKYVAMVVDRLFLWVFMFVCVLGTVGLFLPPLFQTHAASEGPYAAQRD
T1 sequence (Q15822 whole entry): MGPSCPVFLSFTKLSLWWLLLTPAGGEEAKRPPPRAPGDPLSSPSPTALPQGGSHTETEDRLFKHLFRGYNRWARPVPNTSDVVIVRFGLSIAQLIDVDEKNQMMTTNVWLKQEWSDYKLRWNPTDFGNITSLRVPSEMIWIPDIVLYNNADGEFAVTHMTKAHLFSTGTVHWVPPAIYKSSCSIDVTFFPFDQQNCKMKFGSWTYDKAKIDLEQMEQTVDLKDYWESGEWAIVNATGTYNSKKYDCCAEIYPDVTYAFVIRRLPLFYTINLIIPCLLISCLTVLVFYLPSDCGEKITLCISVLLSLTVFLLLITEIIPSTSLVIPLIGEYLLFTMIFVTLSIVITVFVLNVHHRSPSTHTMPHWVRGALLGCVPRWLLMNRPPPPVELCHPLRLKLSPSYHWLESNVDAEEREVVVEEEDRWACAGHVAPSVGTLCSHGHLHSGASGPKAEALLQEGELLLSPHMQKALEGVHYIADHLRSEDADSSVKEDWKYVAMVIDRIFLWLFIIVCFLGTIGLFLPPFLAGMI

[3] = target: T1, Neuronal acetylcholine receptor; alpha2/beta4; experiment: as §1; type: functional, cell-based; remark: listed apart in the source
[4] = In vitro agonist activity against activated human recombinant alpha3-beta4 neuronal acetylcholine receptors (nAChR) in Xenopus Oocytes; type: functional, cell-based
[5] = target: Neuronal acetylcholine receptor; alpha3/beta4 (Homo sapiens) (UniProt P30926+P32297); experiment: In vitro agonist activity against activated human recombinant Nicotinic acetylcholine receptor alpha3-beta4 in Xenopus Oocytes; type: functional, cell-based
[6] = target: T2, Neuronal acetylcholine receptor; alpha4/beta4 (Homo sapiens, UniProt P30926+P43681); experiment: Compound was evaluated for its agonist activity against activated human recombinant Nicotinic acetylcholine receptor alpha4-beta4 in Xenopus Oocytes; type: functional, cell-based
T2 sequence (P30926 whole entry): as the sequence (P30926 whole entry) above
T2 sequence (P43681 whole entry): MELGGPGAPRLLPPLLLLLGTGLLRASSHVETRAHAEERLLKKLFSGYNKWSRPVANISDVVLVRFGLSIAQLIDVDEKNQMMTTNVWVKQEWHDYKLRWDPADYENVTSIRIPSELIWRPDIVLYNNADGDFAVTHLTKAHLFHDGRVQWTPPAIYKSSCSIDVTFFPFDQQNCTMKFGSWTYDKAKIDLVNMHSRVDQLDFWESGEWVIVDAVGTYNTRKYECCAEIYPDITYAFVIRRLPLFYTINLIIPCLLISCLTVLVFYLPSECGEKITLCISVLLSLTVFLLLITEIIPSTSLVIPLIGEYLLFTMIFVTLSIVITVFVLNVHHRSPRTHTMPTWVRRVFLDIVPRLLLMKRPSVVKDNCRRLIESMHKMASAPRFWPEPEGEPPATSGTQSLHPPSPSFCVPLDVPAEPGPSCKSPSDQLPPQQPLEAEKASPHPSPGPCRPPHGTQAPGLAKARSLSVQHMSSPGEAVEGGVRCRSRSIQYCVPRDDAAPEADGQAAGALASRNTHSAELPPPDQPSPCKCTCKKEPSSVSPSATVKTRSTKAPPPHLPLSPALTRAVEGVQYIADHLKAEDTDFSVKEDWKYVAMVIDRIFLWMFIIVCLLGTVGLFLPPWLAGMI

[7] = In vitro ability to displace tritiated nicotine from rat brain binding sites
[8] = target: T3, Neuronal acetylcholine receptor; alpha4/beta2 (Homo sapiens, UniProt P17787+P43681); experiment: Compound was evaluated for agonist activity against activated human recombinant aNicotinic acetylcholine receptor alpha4-beta2 in Xenopus Oocytes; type: functional, cell-based
T3 sequence (P17787 whole entry): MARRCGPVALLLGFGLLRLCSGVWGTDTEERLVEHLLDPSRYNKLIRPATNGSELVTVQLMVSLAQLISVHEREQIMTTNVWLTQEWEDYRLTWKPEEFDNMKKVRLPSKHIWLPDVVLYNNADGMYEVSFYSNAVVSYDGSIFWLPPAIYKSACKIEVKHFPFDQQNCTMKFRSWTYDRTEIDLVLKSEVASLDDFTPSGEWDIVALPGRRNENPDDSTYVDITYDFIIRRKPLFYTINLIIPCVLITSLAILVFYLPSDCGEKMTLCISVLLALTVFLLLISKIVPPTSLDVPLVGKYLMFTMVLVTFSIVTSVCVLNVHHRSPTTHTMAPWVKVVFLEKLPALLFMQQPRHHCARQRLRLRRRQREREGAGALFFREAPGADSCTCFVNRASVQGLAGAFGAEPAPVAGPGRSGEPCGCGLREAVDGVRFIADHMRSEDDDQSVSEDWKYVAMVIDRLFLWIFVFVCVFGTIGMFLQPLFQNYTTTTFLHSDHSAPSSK
T3 sequence (P43681 whole entry): as the sequence (P43681 whole entry) above

[9] = target: T3, Neuronal acetylcholine receptor; alpha4/beta2; experiment: Compound was evaluated for agonist activity against activated human recombinant Nicotinic acetylcholine receptor alpha4-beta2 in Xenopus Oocytes; type: functional, cell-based
[10] = species on record: Rattus norvegicus; experiment: Compound was tested for its ability to release dopamine from rat striatal slices at 300 uM; type: functional
[11] = target: T2, Neuronal acetylcholine receptor; alpha4/beta4; experiment: Compound was evaluated for agonist activity against activated human recombinant Nicotinic acetylcholine receptor alpha4-beta4 in Xenopus Oocytes; type: functional, cell-based
[12] = species on record: Rattus norvegicus; experiment: In vitro ability to release dopamine from rat striatal slices; type: functional

Row | SMILES | IC50 [1] | EC50 [2] | Efficacy [3] | EC50 [4] | Efficacy [5] | EC50 [6] | IC50 [7] | EC50 [8] | Efficacy [9] | Efficacy [10] | Efficacy [11] | Efficacy [12]
1 | CN1CCC[C@H]1c1cccnc1 [NICOTINE] | 0.004 µM | – | – | – | – | – | – | – | – | – | – | –
2 | COc1cc2c(cn1)C1NCCC1CC2 (stereo not drawn) | – | 87 µM | 22% | 81 µM | 5% | 32 µM | 1.9 µM | 3 µM | 8% | 73 | 44% | –
3 | c1cc2c(cn1)C1NCCC1CC2 (stereo not drawn) | 0.51 µM | – | – | – | – | – | – | – | – | – | – | 56%
